Source: ChEMBL document CHEMBL5500407, “Designing Chromane Derivatives as α2A-Adrenoceptor Selective Agonists via Conformation Constraint” (J Med Chem, 2024)
The source made the active and inactive calls. No cut-off for these calls is given here.

Experiments:
[1] = target: T1, Alpha-1B adrenergic receptor (Homo sapiens, UniProt P35368); test: Binding affinity to human alpha1B-adrenoceptor
T1 sequence (P35368 whole entry): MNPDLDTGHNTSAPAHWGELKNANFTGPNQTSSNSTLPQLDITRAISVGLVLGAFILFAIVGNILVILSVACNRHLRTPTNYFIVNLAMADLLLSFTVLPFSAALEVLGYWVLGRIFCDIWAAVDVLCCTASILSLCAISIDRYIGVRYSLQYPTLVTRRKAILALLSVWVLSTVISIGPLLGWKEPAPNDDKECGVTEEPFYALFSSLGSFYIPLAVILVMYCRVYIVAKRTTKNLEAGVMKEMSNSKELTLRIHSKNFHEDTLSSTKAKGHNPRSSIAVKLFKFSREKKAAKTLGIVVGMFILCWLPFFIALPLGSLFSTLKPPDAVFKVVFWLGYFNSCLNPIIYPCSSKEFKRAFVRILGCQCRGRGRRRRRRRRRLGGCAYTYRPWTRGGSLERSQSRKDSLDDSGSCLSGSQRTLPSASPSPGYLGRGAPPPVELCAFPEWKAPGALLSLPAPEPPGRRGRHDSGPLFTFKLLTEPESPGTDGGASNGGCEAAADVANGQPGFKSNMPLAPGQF

[2] = target: T2, Alpha-1D adrenergic receptor (Homo sapiens, UniProt P25100); test: Binding affinity to human alpha1D-adrenoceptor
T2 sequence (P25100 whole entry): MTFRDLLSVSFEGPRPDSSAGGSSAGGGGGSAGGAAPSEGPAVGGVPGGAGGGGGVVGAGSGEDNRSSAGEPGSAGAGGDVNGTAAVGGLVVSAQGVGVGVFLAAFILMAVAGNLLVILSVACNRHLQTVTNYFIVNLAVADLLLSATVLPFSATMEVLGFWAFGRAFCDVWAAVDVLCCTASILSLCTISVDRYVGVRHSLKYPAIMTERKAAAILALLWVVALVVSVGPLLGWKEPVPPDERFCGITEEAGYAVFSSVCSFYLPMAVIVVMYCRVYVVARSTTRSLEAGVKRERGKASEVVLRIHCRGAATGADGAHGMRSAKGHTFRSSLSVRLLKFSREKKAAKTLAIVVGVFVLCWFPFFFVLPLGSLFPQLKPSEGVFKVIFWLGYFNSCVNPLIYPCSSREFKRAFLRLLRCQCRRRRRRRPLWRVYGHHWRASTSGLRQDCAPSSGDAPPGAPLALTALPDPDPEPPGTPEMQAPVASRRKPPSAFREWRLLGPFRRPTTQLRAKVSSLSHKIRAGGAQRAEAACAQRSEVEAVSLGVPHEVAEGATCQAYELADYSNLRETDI

[3] = target: T3, Alpha-2B adrenergic receptor (Homo sapiens, UniProt P18089); test: Agonist activity at human alpha2B-adrenoceptor
T3 sequence (P18089 whole entry): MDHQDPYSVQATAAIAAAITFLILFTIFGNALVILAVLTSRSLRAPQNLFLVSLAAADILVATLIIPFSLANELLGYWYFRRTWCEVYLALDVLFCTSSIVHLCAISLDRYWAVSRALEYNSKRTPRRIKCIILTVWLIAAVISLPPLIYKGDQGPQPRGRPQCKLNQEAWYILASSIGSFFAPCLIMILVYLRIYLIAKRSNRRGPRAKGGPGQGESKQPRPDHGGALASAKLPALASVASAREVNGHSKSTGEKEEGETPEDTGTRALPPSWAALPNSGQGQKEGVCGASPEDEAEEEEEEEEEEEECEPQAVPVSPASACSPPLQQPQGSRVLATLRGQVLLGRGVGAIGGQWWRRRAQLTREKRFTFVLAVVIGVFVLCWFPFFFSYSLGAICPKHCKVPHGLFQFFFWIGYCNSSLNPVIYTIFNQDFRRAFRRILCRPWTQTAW

[4] = target: T4, Alpha-2C adrenergic receptor (Homo sapiens, UniProt P18825); test: Agonist activity at human alpha2C-adrenoceptor
T4 sequence (P18825 whole entry): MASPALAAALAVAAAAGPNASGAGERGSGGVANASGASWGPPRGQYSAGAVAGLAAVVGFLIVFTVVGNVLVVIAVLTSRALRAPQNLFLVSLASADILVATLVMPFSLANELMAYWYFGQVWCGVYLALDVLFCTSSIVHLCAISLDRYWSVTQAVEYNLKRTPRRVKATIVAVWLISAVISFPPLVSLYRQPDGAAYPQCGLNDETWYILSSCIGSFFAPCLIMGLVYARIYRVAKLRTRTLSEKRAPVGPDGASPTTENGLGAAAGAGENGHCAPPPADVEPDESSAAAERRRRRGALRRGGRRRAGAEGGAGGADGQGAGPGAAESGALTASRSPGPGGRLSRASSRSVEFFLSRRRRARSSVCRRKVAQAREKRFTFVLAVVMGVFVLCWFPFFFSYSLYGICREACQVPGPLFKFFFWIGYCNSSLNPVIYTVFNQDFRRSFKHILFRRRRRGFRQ

[5] = target: T3, Alpha-2B adrenergic receptor; test: Agonist activity at alpha2B-adrenoceptor (unknown origin) expressed in U2OS-EGFP-NFAT2-alpha2B-AR cells assessed as increase in intracellular calcium level measured after 15 mins incubation by Micro automated microscopy; assay type: functional, cell-based
[6] = target: T4, Alpha-2C adrenergic receptor; test: Agonist activity at alpha2C-adrenoceptor (unknown origin) expressed in CHO-alpha2C-PKAcatEGFP cells assessed as increase in intracellular calcium level measured after 15 mins incubation by Micro automated microscopy; assay type: functional, cell-based
[7] = target: T5, Alpha-1A adrenergic receptor (Homo sapiens, UniProt P35348); test: Agonist activity at alpha1A-adrenoceptor (unknown origin) expressed in HEK293T cells assessed as fluorescence intensity measured after 30 mins by IP-one homogeneous time-resolved fluorescence assay; assay type: functional, cell-based
T5 sequence (P35348 whole entry): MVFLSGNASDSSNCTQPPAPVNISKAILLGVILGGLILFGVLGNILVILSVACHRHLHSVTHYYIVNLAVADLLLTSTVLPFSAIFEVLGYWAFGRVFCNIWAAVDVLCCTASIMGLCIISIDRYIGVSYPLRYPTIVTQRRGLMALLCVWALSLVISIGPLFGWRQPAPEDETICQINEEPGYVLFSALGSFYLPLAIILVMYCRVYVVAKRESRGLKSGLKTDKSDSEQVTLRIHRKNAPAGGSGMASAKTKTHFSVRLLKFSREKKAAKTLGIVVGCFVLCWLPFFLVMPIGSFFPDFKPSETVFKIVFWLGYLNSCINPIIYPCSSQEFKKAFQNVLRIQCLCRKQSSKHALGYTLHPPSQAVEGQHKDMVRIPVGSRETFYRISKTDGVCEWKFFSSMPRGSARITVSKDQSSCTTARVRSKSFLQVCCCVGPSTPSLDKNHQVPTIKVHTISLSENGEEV

[8] = Metabolic stability in mouse liver microsomes assessed as elimination half life; assay type: ADME, Microsome
[9] = Metabolic stability in mouse liver microsomes assessed as intrinsic clearance; assay type: ADME, Microsome; settings: read-out: CLH
[10] = target: T5, Alpha-1A adrenergic receptor
Description: Binding affinity to human alpha1A-adrenoceptor

Mus musculus [11] = test: Hypnotic activity in ip dosed C57BL/6 mouse assessed as increase in immobility time; assay type: functional, organism-based
Mus musculus [12] = test: Hypnotic activity in C57BL/6 mouse assessed as increase in loss of righting reflex (LORR) in presence of atipamezole alpha2-adrenoceptor antagonist at 0.60 mg/kg, ip; assay type: functional, organism-based; settings: dose 0.6 mg/kg
Mus musculus [13] = test: Hypnotic activity in C57BL/6 mouse assessed as increase in loss of righting reflex (LORR) in presence of BRL44408 alpha2A-adrenoceptor antagonist at 0.60 mg/kg, ip; assay type: functional, organism-based; settings: dose 0.6 mg/kg
Mus musculus [14] = test: Hypnotic activity in C57BL/6 mouse assessed as increase in loss of righting reflex (LORR) in presence of ARC239 alpha2B-adrenoceptor antagonist at 0.60 mg/kg, ip; assay type: functional, organism-based; settings: dose 0.6 mg/kg
Mus musculus [15] = test: Hypnotic activity in C57BL/6 mouse assessed as increase in loss of righting reflex (LORR) in presence of JP1302 alpha2C-adrenoceptor antagonist at 0.60 mg/kg, ip; assay type: functional, organism-based; settings: dose 0.6 mg/kg
Mus musculus [16] = test: Hypnotic activity in C57BL/6 mouse assessed as increase in induction time righting reflex (LORR) in presence of atipamezole alpha2-adrenoceptor antagonist at 0.60 mg/kg, ip; assay type: functional, organism-based; settings: dose 0.6 mg/kg
HEK293T [17] = test: Agonist activity at alpha2A-adrenoceptor D128A mutant (unknown origin) expressed in HEK293T cells co-expressing pGloSensor-22F cAMP plasmid assessed as at 0.000001 to 100 uM measured after 10 mins incubation by multiplate reader; assay type: cell-based; settings: Homo sapiens, dose lower 1e-06 µM, dose upper 100.0 µM
HEK293T [18] = test: Agonist activity at alpha2A-adrenoceptor Y409A mutant (unknown origin) expressed in HEK293T cells co-expressing pGloSensor-22F cAMP plasmid assessed as at 0.000001 to 100 uM measured after 10 mins incubation by multiplate reader; assay type: cell-based; settings: Homo sapiens, dose lower 1e-06 µM, dose upper 100.0 µM
HEK293T [19] = test: Agonist activity at alpha2A-adrenoceptor F427A mutant (unknown origin) expressed in HEK293T cells co-expressing pGloSensor-22F cAMP plasmid assessed as at 1 to 100 uM measured after 10 mins incubation by multiplate reader; assay type: cell-based; settings: Homo sapiens, filed as agonist, dose 1-100 µM
[20] = target: T6, Adrenergic receptor alpha-1 (Homo sapiens, UniProt P35348+P25100+P35368); test: Binding affinity to alpha1-adrenoceptor (unknown origin); assay type: protein assay
T6 sequence (P35348 whole entry): T5 sequence (P35348 whole entry)
T6 sequence (P25100 whole entry): T2 sequence (P25100 whole entry)
T6 sequence (P35368 whole entry): T1 sequence (P35368 whole entry)

[21] = target: T7, Adrenergic receptor alpha-2 (Homo sapiens, UniProt P08913+P18825+P18089); test: Binding affinity to alpha2-adrenoceptor (unknown origin); assay type: protein assay
T7 sequence (P08913 whole entry): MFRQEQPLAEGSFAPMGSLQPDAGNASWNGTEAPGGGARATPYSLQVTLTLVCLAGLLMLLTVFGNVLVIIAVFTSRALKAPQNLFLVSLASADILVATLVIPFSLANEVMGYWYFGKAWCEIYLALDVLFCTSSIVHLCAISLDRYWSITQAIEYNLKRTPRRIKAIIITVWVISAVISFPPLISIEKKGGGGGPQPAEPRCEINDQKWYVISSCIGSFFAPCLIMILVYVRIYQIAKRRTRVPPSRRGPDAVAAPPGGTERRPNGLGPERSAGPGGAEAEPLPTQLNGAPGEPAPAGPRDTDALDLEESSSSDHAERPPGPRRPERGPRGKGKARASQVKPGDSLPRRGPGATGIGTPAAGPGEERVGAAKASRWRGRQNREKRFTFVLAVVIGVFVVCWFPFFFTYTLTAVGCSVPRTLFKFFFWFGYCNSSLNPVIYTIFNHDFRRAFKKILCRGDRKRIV
T7 sequence (P18825 whole entry): T4 sequence (P18825 whole entry)
T7 sequence (P18089 whole entry): T3 sequence (P18089 whole entry)

[22] = target: T8, Alpha-2A adrenergic receptor (Homo sapiens, UniProt P08913); test: Agonist activity at human alpha2A adrenoceptor assessed as [35S]GTPgammaS binding by scintillation counting analysis; assay type: functional
T8 sequence (P08913 whole entry): T7 sequence (P08913 whole entry)

Question: With `Cc1cccc([C@H](C)c2cnc[nH]2)c1C` [DEXMEDETOMIDINE] as the compound, how does the Ki [1] read?
Answer: 9120 nM

Question: What about the Ki [2] of the same compound?
Answer: 1230 nM

Question: What about the EC50 [3] of the same compound?
Answer: 3.31 nM

Question: And the EC50 [4]?
Answer: 28.8 nM

Question: What about the EC50 [5] of the same compound?
Answer: 1.91 nM

Question: What about the EC50 [6] of the same compound?
Answer: 5.37 nM

Question: And the EC50 [7]?
Answer: 13 nM

Question: And the half-life [8]?
Answer: 2.6 h

Question: And the microsomal CLint [9]?
Answer: 8.89 µL/min/mg

Question: What about the Ki [10] of the same compound?
Answer: 1320 nM

Question: For `Brc1cccc2c1OCCC2c1c[nH]cn1` (configuration not stated), which EC50 [5] is on record?
Answer: 163 nM

Question: And the EC50 [6]?
Answer: 21.3 nM

Question: What about the EC50 [7] of the same compound?
Answer: 2.55 nM

Question: And the half-life [8]?
Answer: 0.797 h

Question: And the microsomal CLint [9]?
Answer: 29 µL/min/mg

Question: What about the Activity (Mus musculus [11]) of the same compound?
Answer: Dose-Dependent Effect

Question: And the Activity (Mus musculus [12])?
Answer: inactive

Question: And the Activity (Mus musculus [13])?
Answer: inactive

Question: And the Activity (Mus musculus [14])?
Answer: Active

Question: And the Activity (Mus musculus [15])?
Answer: Active

Question: What about the Activity (Mus musculus [16]) of the same compound?
Answer: inactive

Question: What about the Activity (HEK293T [17]) of the same compound?
Answer: inactive

Question: And the Activity (HEK293T [18])?
Answer: inactive

Question: And the Activity (HEK293T [19])?
Answer: Active

Question: With `Cc1cccc2c1CCC2c1c[nH]cn1` (configuration not stated) as the compound, how does the pKi [20] read?
Answer: 7.14

Question: What about the pKi [21] of the same compound?
Answer: 8.06

Question: Which pEC50 [22] does the source give for `CC(c1cccc(C2(C(F)(F)F)N=N2)c1)c1c[nH]cn1` (configuration not stated) here?
Answer: 6.53
